How the values were obtained:
Format in all cases: biochemical
[1] = target: T1, PARP-3 (Homo sapiens, UniProt Q9Y6F1); assay: auto(ADP-ribosyl)ation of PARP-3
T1 construct: made in house
T1 sequence (Q9Y6F1 1-533): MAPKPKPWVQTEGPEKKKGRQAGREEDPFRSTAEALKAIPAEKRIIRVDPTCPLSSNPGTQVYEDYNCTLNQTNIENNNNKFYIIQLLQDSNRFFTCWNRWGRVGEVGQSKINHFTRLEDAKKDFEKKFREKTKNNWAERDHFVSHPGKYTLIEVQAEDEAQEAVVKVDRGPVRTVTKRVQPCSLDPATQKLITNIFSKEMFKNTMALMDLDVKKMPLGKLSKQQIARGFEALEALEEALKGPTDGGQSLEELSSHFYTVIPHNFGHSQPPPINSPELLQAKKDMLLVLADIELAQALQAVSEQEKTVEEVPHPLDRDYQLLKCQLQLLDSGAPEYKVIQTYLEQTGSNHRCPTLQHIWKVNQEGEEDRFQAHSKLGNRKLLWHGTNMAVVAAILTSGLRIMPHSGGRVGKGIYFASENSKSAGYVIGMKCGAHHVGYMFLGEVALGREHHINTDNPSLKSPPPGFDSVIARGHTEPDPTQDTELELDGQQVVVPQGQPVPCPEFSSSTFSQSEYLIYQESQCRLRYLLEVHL
From the text: (§1) The oligonucleotides were purchased from Biosset (Novosibirsk, Russia). The reagents, solvents and the basic components of buffers were purchased from Sigma (St. Louis, MO, USA), Acros organics (Waltham, MA, USA) or Promega (Madison, WI, USA). γ–[^32P]-ATP and α–[^32P]-ATP (with specific activities of 5000 and 3000 Ci/mmol, respectively) were from the Laboratory of Biotechnology (Institute of Chemical Biology and Fundamental Medicine, Novosibirsk, Russia). T4 polynucleotide kinase was from Biosan (Novosibirsk, Russia). SUMO fusion expression vector pETHSUL (GenBank: EF205333.1) and pSUPER vector coding for the catalytic domain of the S. cerevisiae SUMO hydrolase dtUD1 were kindly provided by Dr. P. Loll (Drexel University, Philadelphia, USA). His6 and Strep-II double-tagged dtUD1 hydrolase was expressed and purified as described in ref. [81]. Human recombinant poly(ADP-ribose)-polymerase 1 (EC 2.4.2.30) was prepared as described previously. Murine recombinant poly(ADP-ribose)-polymerase 2 (EC 2.4.2.30) was purified as described previously. Plasmid encoding human PARP-3 was kindly provided by Dr. A. Ishchenko (Gustave Roussy, Université Paris-Saclay, France). Poly(ADP-ribose)-polymerase 3 (EC 2.4.2.30) was purified according to [6].
The reactions were performed in the presence of 2 mM MgCl2 as a cofactor in HDB buffer. The reaction mixtures (final volume 10 μL) contained 0.1 μM DNA substrate, 0.5 μM PARP-3, 5 μM [^32P]-NAD+ and 0, 35 or 95 μM NAD+ in the absence or presence of various concentrations of the inhibitor, which are indicated on the figures. The reaction mixtures were incubated for 20 min at 37 °С then terminated by adding the 5x gel loading Laemmli sample buffer and heating at 85 °C for 10 min. The mixtures were resolved on a 10% SDS-PAG as described in [84] The gels were dried and subjected to autoradiography and/or phosphorimaging for quantitation using the Typhoon imaging system from GE Healthcare Life Sciences. Quantitative processing was carried out using OriginPro7.5, Microcal Software, USA. […]

[2] = target: T2, Murine recombinant poly(ADP-ribose)-polymerase 2 (Mus musculus, UniProt O88554); assay: autopoly(ADP-ribosyl)ation of PARP-2, [32P]NAD+ incorporation; details: for IC50: autopoly(ADP-ribosyl)ation, 0.6 mM NAD+; for remaining activity at 1000 µM: read-out: Residual PARP-2 activity (converted)
T2 construct: made in house
From the text: as §1
(§2) The reaction of autopoly(ADP-ribosyl)ation was carried out as follows: for PARP-1 50 mM tris-HCl, pH 8.0, 20 mM MgCl2, 150 mM NaCl, and 7 mM β-mercaptoethanol, activated DNA 2 OE/mL, 0.3 mM [^32P] NAD+ at 37 °C. The reaction was initiated by adding PARP-1 to 200 nM and the reaction mixtures were incubated for 1.5 min. For PARP-2: 50 mM tris-HCl, pH 8.0, 3 mM spermin, 150 mM NaCl, and 7 mM β-mercaptoethanol, activated DNA 2 OE/mL, 0.6 mM [^32P] NAD+ at 37 °C. The reaction was initiated by adding PARP-2 to 800 nM and the reaction mixtures were incubated for 5 min. The reaction was stopped by placing 10 μL aliquots onto Whatman 1 paper filters soaked with 5 % TCA. The filters were washed with 5% TCA for four times and dried in air after the removal of TCA with 90% ethanol. The incorporation of radioactivity into the product was calculated with a Tri-Carb 2800 scintillation counter (Perkin Elmer, Waltham, MA, USA) according to the Cherenkov method or using Typhoon FLA 9500 scanner (GE Healthcare, Chicago, IL, USA). To determine the IC50 value of inhibitors (concentration of the compound required reducing the enzyme activity by 50%), we studied the activity of the enzyme at different concentrations of inhibitors. Measurements were done in at least two independent experiments. IC50 values were calculated using the Origin Pro 8.0 software by nonlinear regression analysis.

[3] = target: T3, PARP-1 (Homo sapiens, UniProt P09874); assay: kinetics of PARP-1 inhibition (Km, Vmax, type of inhibition) by fluorescence anisotropy; details: for type of inhibition: PARP-1 catalyzed reaction, versus NAD+
T3 construct: made in house
Description: The type of inhibition was determined based on at what stage of the reaction the inhibitor binds to the enzyme (before or after the substrate binding) and where it binds (at the substrate binding site or elsewhere). There are four types of inhibition: competitive, whereby an inhibitor binding occurs at the substrate-binding site; noncompetitive, where an inhibitor binds at the allosteric center; mixed with inhibitor binding at both the active and allosteric center; or uncompetitive under an inhibitor binding to the enzyme-substrate complex. Determination of the type of inhibition is necessary to confirm the computer simulation data and to plan further modifications of the inhibitor structure. The type of inhibition can be determined from the plots of the reaction parameters, such as maximum rates, Vmax and the apparent Michaelis constant, Km, values, versus inhibitor concentration. […] Noncompetitive inhibition leads to a decrease of Vmax and retention of the Km values. Mixed inhibition is a superposition of the first two, and is characterized by a decrease in the reaction rate and an increase in Km values. In the case of uncompetitive inhibition, both […].
To determine the type of inhibition of the studied compounds, the activity of PARP-1 was measured at presence of three different inhibitor concentrations at nine NAD+ substrate concentrations by the fluorescence anisotropy technique. Based on the obtained data, dependence graphs of the initial reaction rate on the substrate concentration were constructed, and reaction parameters such as maximum reaction rate (Vmax) and apparent Michaelis constant (Km) values were found (Tables S3 and S4, Supporting). To determine the type of inhibition, we plotted the dependence graph of Vmax and Km values on the inhibitor concentration using OriginPro 8.6.0 software. (Figure 3). […] Therefore, the results of modeling of the binding type of these compounds in the enzyme’s active center are legitimate.
The determination of the kinetic parameters of inhibition Km and Vmax was carried out as described. In all experiments, the points on the experimental curves represent the average of a minimum three independent experiments.

[4] = target: T4, Human recombinant poly(ADP-ribose)-polymerase 1 (Homo sapiens, UniProt P09874); assay: autopoly(ADP-ribosyl)ation of PARP-1, [32P]NAD+ incorporation; details: for IC50: autopoly(ADP-ribosyl)ation, 0.3 mM NAD+; for remaining activity at 1000 µM / Residual PARP-1 activity: in the presence of 1 mM compound; for remaining activity at 1000 µM: read-out: Residual PARP-1 activity (converted)
T4 construct: made in house
From the text: as §1, §2

[5] = in the presence of 1 mM compound

T2 sequence (O88554 whole entry): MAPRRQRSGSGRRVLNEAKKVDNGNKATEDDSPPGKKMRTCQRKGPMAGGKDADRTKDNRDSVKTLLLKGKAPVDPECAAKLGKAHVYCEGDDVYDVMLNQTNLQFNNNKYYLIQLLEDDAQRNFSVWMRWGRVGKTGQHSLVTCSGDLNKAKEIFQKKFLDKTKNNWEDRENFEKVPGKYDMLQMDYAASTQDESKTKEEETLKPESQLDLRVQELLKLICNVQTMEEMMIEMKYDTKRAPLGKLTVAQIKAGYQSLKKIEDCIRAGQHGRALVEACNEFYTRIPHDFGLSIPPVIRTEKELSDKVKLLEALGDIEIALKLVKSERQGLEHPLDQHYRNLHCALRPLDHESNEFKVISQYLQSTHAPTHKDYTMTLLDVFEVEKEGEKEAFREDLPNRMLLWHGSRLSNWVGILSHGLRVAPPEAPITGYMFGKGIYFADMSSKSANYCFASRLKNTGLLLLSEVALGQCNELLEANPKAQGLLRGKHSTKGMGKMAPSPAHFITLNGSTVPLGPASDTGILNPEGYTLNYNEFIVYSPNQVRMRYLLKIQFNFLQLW
T4 sequence (P09874 whole entry): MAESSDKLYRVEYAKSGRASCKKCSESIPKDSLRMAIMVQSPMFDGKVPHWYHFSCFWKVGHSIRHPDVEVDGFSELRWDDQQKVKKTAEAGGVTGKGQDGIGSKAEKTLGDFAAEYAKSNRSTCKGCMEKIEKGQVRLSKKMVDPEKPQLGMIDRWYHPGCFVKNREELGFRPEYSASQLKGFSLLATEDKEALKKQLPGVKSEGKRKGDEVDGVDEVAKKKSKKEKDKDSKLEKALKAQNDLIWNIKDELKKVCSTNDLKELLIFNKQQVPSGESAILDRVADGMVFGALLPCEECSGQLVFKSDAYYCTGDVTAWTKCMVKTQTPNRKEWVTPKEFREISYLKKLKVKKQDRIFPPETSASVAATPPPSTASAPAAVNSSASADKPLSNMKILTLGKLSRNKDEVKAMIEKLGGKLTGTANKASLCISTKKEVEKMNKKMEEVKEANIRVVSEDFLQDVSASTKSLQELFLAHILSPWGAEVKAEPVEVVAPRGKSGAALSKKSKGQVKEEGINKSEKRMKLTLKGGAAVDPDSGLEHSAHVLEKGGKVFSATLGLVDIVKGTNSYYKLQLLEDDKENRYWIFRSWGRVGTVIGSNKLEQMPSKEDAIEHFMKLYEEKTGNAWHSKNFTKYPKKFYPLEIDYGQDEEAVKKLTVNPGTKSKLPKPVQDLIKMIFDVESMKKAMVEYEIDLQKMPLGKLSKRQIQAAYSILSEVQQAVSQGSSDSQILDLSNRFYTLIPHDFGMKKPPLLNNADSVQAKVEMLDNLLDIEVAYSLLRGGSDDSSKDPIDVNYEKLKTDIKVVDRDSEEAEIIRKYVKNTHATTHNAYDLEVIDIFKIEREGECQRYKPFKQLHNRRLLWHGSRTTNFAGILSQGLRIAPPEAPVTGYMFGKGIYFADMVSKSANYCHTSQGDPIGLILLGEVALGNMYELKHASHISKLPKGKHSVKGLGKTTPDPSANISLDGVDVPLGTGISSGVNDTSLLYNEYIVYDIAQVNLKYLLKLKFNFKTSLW
T3 sequence (P09874 whole entry): as above

| Structure (SMILES) | IC50 [2] [µM] | type of inhibition [3] | Vmax ([3]; inhibitor concentration 50 μМ) [RFU/sec] | Vmax ([3]; inhibitor concentration 100 μМ) [RFU/sec] | Vmax ([3]; inhibitor concentration 500 μМ) [RFU/sec] | IC50 [4] [µM] | remaining activity at 1000 µM [2, 5] [%] | remaining activity at 1000 µM [4] [%] | other results |
| --- | --- | --- | --- | --- | --- | --- | --- | --- | --- |
| O=c1[nH]c(=O)n([C@H]2CNC[C@@H](CO)O2)cc1I [Compound 11IU] | 85 ± 9 | competitive inhibitors | 0.066 | 0.066 | 0.060 | 53 ± 12 |  |  |  |
| Nc1ncnc2c1ncn2C1OC(COP(=O)(O)OP(=O)(O)OCC2CNCC(n3cc(I)c(=O)[nH]c3=O)O2)C(O)C1O (stereo not drawn) [Compound 4IU] | 160 | mixed inhibitor | 0.16 | 0.15 | 0.14 | 255 |  |  |  |
| Nc1ncnc2c1ncn2[C@H]1CNC[C@@H](CO)O1 [Compound 11A] |  |  |  |  |  |  | 90 | 82 |  |
| O=c1[nH]c(=O)n([C@@H]2O[C@H](CO)[C@@H](O)[C@H]2O)cc1Cl [Compound 5-Cl-Urd, 5-Cl-uridine, reference compound] | 196 ± 25 |  |  |  |  |  |  |  | Residual PARP-1 activity [4]: 82% ±17% |
| Nc1ccn(C2CNCC(CNP(=O)(O)OP(=O)(O)OCC3OC(n4cnc5c(N)ncnc54)C(O)C3O)O2)c(=O)n1 (stereo not drawn) [Compound 10C] |  |  |  |  |  |  | 34.5 | 87.5 |  |
| Nc1ncnc2c1ncn2C1OC(COP(=O)(O)OP(=O)(O)NCC2CNCC(n3cc(Cl)c(=O)[nH]c3=O)O2)C(O)C1O (stereo not drawn) [Compound 10ClU] |  |  |  |  |  |  | 47 | 46 |  |
| O=c1ccn([C@H]2CNC[C@@H](CO)O2)c(=O)[nH]1 [Compound 11U] |  |  |  |  |  |  | 97 | 91 |  |
| NC(=O)c1cccc(N)c1 [Compound 3-AB, 3-aminobenzamide, reference compound] |  |  | 0.16 | 0.16 | 0.16 |  |  |  |  |
| Nc1ccn([C@@H]2O[C@H](CO)[C@@H](O)[C@H]2O)c(=O)n1 [Cyd, reference compound] |  |  |  |  |  |  |  |  | Residual PARP-2 activity [2, 5]: 85% ± 4%; Residual PARP-1 activity [4]: 81% ± 16% |

The next lines start with results.

| IC50 [2] [µM] | type of inhibition [3] | Vmax ([3]; inhibitor concentration 50 μМ) [RFU/sec] | Vmax ([3]; inhibitor concentration 100 μМ) [RFU/sec] | Vmax ([3]; inhibitor concentration 500 μМ) [RFU/sec] | IC50 [4] [µM] | Structure (SMILES) | remaining activity at 1000 µM [2, 5] [%] | remaining activity at 1000 µM [4] [%] | other results |
| --- | --- | --- | --- | --- | --- | --- | --- | --- | --- |
| 110 | competitive inhibitors | 0.19 | 0.18 | 0.17 | 126 | Nc1ncnc2c1ncn2C1OC(COP(=O)(O)OP(=O)(O)NCC2CNCC(n3cc(I)c(=O)[nH]c3=O)O2)C(O)C1O (stereo not drawn) [Compound 10IU] |  |  | activity against PARP-3 [1]: low activity; inhibitory activity in the auto(ADP-ribosyl)ation reaction of PARP-3 ([1]; 1 mM concentration): significant inhibitory activity |
| 63 ± 10 | mixed inhibitor |  |  |  | 353 ± 4 | Nc1ncnc2c1ncn2C1CNCC(CNP(=O)(O)OP(=O)(O)OCC2OC(n3cnc4c(N)ncnc43)C(O)C2O)O1 (stereo not drawn) [Compound 10A] |  |  | activity against PARP-3 [1]: lack of activity; Vmax ([3]; inhibitor concentration 300 μМ): 0.090 RFU/sec; Vmax ([3]; inhibitor concentration 600 μМ): 0.068 RFU/sec; Vmax ([3]; inhibitor concentration 900 μМ): 0.062 RFU/sec |
